From PubChem BioAssay AID1963845 (Molecular Pharmacology Branch, DTP, NCI, 2024)
Where “and” joins values, the source holds several entries; their conditions need not be identical. Equal entries are not always repeated.

Tested on: 429239-143-T-J1-PDC complex spheroid viability
Assay: Anticancer human tumor 429239-143-T-J1-PDC patient-derived small cell lung carcinoma cell line growth inhibition [POLQ]
Details: for viability, T/C: stronger effect = lower value
Method: Multicellular complex tumor spheroid response to Polymerase (POL) inhibitors (novobiocin, ART-558, RP6685) in combination with a variety of drugs and investigational agents in selected tumor cell lines
The POL inhibitors (novobiocin, ART-558, and RP6685) were evaluated both individually and in combination with standard of care and investigational anticancer small molecules within a complex spheroid model of solid tumors. . Complex spheroids include a stromal component modeled by human endothelial cells (HUVEC) and fibroblasts modeled by human mesenchymal stem cells (MSCs). The concentration ranges selected for each drug and investigational agent were based upon clinically achievable concentrations if the clinical Cmax of the agent was known.
Compounds. The drugs and investigational agents: novobiocin (NSC847541), ART-558 (NSC835418), RP-6685 (NSC848927), peposertib (NSC802822), ceralasertib (NSC780249), elimusertib (NSC800525), camonsertib (NSC841442), AZD-1390 (NSC803789), olaparib (NSC753686), talazoparib (NSC767125), rucaparib (NSC756644), sotorasib (NSC818433), MRTX-1133 (NSC836407), SN-38 (NSC673596), topotecan (NSC609699), epotoside (NSC141540), doxorubicin (NSC123127), gemcitabine (NSC613327), 5-fluorouracil (NSC19893), paclitaxel (NSC125973), vemurafenib (NSC761431), MSA-2 (NSC828583), SN-011 (NSC837082), adavosertib (NSC754352), prexasertib (NSC758257), carboplatin (NSC241240) and oxaliplatin (NSC266046), were obtained from the National Cancer Institute (NCI) Developmental Therapeutics Program Chemical Repository (21). The FDA-approved anticancer drug set is available from the Developmental Therapeutics Program at https://dtp.cancer.gov/organization/dscb/obtaining/. […] The stock solutions were prepared in dimethyl sulfoxide (DMSO, Sigma-Aldrich, St. Louis, MO, cat. D2650), except for the platinum compounds which were prepared in saline (Quality Biological, Gaithersburg, MD, cat. 114-055-101), at 800-fold the tested concentration and stored at -70 degrees C prior to their use. All drugs and investigational agents were tested over a range starting from a high concentration at or near the clinical Cmax and decreasing in half-log increments. If the clinical Cmax for an agent had not been determined, the highest concentration tested was 10 microM, except for SN-38, which was tested at a high concentration of 1 microM.
Cell Culture. All cells were maintained in an incubator at 37 degrees C and 5% CO2 with 95% humidity. The PDC lines were cultured according to standard operating procedures established by the NCI PDMR (https://pdmr.cancer.gov). Table 3 of the manuscript, lists the cell lines along with the number of the three cell types plated to form the mct-spheroids and media for tumor cell growth. After thawing, all PDC lines, except 997537-175-T-J1-PDC and 415267-285-R-J2-PDC, were cultured in Matrigel-coated flasks prepared with a working solution of 1X Ham's F-12 nutrient mix, without supplementation (Thermo Fisher Scientific, cat. 11765054), 100 U/mL penicillin-streptomycin (Thermo Fisher Scientific, cat. 15140122), and 2.5% Matrigel (Corning Inc., Corning, NY, cat. 354248) for the first three passages. The two PDC lines 997537-175-T-J1-PDC and 415267-285-R-J2-PDC were cultured on uncoated flasks. The 857933-349-R-J2-PDC line was cultured in 6C/Colon 1B media containing advanced DMEM/F-12 (Thermo Fisher Scientific, cat. 12634028), 10 mM HEPES (Thermo Fisher Scientific, cat. 15630080), 1X GlutaMAX supplement (Thermo Fisher Scientific, cat. 35050061), 0.1 mg/mL primocin (InvivoGen, San Diego, CA, cat. ant-pm-2), 10% defined fetal bovine serum, heat inactivated (HyClone Laboratories Inc., Logan, UT, cat. SH30070.03HI), 50% L-WRN conditioned media (ATCC, cat. CRL-3276), 1.25 mM N-Acetyl-L-cysteine (Sigma-Aldrich, cat. A9165), 10 mM nicotinamide (Sigma-Aldrich, cat. N0636), 1X B-27 supplement (Thermo Fisher Scientific, cat. 17504044), 1X N-2 supplement (Thermo Fisher Scientific, cat. […]

[1] = curve of first compound, second compound 0.0316 µM
[2] = curve of first compound, second compound 0.1 µM
[3] = curve of first compound, second compound 0.316 µM
[4] = curve of first compound, second compound 1 µM
[5] = curve of first compound, second compound 3.16 µM
[6] = curve of first compound, second compound 10 µM
[7] = second compound 0.0316 µM, first compound 0.0316 µM
[8] = second compound 0.0316 µM, first compound 0.1 µM
[9] = second compound 0.0316 µM, first compound 0.316 µM
[10] = second compound 0.0316 µM, first compound 1 µM
[11] = second compound 0.0316 µM, first compound 3.16 µM
[12] = second compound 0.0316 µM, first compound 10 µM
[13] = second compound 0.1 µM, first compound 0.0316 µM
[14] = second compound 0.1 µM, first compound 0.1 µM
[15] = second compound 0.1 µM, first compound 0.316 µM
[16] = second compound 0.1 µM, first compound 1 µM
[17] = second compound 0.1 µM, first compound 3.16 µM
[18] = second compound 0.1 µM, first compound 10 µM
[19] = second compound 0.316 µM, first compound 0.0316 µM
[20] = second compound 0.316 µM, first compound 0.1 µM
[21] = second compound 0.316 µM, first compound 0.316 µM
[22] = second compound 0.316 µM, first compound 1 µM
[23] = second compound 0.316 µM, first compound 3.16 µM
[24] = second compound 0.316 µM, first compound 10 µM
[25] = second compound 1 µM, first compound 0.0316 µM
[26] = second compound 1 µM, first compound 0.1 µM
[27] = second compound 1 µM, first compound 0.316 µM
[28] = second compound 1 µM, first compound 1 µM
[29] = second compound 1 µM, first compound 3.16 µM
[30] = second compound 1 µM, first compound 10 µM
[31] = second compound 3.16 µM, first compound 0.0316 µM
[32] = second compound 3.16 µM, first compound 0.1 µM
[33] = second compound 3.16 µM, first compound 0.316 µM
[34] = second compound 3.16 µM, first compound 1 µM
[35] = second compound 3.16 µM, first compound 3.16 µM
[36] = second compound 3.16 µM, first compound 10 µM
[37] = second compound 10 µM, first compound 0.0316 µM
[38] = second compound 10 µM, first compound 0.1 µM
[39] = second compound 10 µM, first compound 0.316 µM
[40] = second compound 10 µM, first compound 1 µM
[41] = second compound 10 µM, first compound 3.16 µM
[42] = second compound 10 µM, first compound 10 µM
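Note: luminescence signal used as surrogate measure of viable cells; spheroids exposed to compounds for seven days before readout.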
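Throughout, for viability, T/C: 100% = DMSO vehicle control viability as luminescence relative to vehicle.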

O=C(c1cc(Cc2n[nH]c(=O)c3ccccc23)ccc1F)N1CCN(C(=O)C2CC2)CC1 + Cc1cccc(N(C)C(=O)C2C(O)CCN2c2nc(C)cc(C(F)(F)F)c2C#N)c1
IC50 [1]: 1.57 µM | IC50 [2]: 1.46 µM | IC50 [3]: 1.65 µM | IC50 [4]: 1.75 µM | IC50 [5]: 1.88 µM | IC50 [6]: 1.5 µM | viability, T/C [7]: 104% | viability, T/C [8]: 84.5% | viability, T/C [9]: 82.9% | viability, T/C [10]: 65.4% | viability, T/C [11]: 28.9% | viability, T/C [12]: 19.9% | viability, T/C [13]: 85.1% | viability, T/C [14]: 81.3% | viability, T/C [15]: 78% | viability, T/C [16]: 55.8% | viability, T/C [17]: 35.3% | viability, T/C [18]: 17.9% | viability, T/C [19]: 94.2% | viability, T/C [20]: 82.5% | viability, T/C [21]: 81.9% | viability, T/C [22]: 61.3% | viability, T/C [23]: 35% | viability, T/C [24]: 18.7% | viability, T/C [25]: 83.5% | viability, T/C [26]: 78.9% | viability, T/C [27]: 80.6% | viability, T/C [28]: 63.4% | viability, T/C [29]: 35.5% | viability, T/C [30]: 18.6% | viability, T/C [31]: 92.6% | viability, T/C [32]: 78.7% | viability, T/C [33]: 81.5% | viability, T/C [34]: 66.3% | viability, T/C [35]: 36.5% | viability, T/C [36]: 21% | viability, T/C [37]: 89.5% | viability, T/C [38]: 91.9% | viability, T/C [39]: 70.9% | viability, T/C [40]: 58.2% | viability, T/C [41]: 37% | viability, T/C [42]: 18.7%

CCc1cc2c(N3CCc4c(cc(Cn5ccnc5)cc4-c4cn(C)nc4C(F)(F)F)C3=O)ccnc2c(OC)n1
viability, T/C (compound 0.0316 µM): 91% and 106% and 101% | viability, T/C (compound 0.1 µM): 85.1% and 102% and 98.5% | viability, T/C (compound 0.316 µM): 75.5% and 95.9% and 87.7% | viability, T/C (compound 1 µM): 61.2% and 86.6% and 91.9% | viability, T/C (compound 3.16 µM): 55.3% and 83.3% and 73.6% | viability, T/C (compound 10 µM): 32.2% and 55.7% and 54.7% | IC50 (curve of compound): 3.3 µM and > 10 µM

CC(C)n1c(=O)n(C)c2cnc3cc(F)c(-c4ccc(OCCCN5CCCCC5)nc4)cc3c21
viability, T/C (compound 0.0316 µM): 99.4% and 102% and 100% | viability, T/C (compound 0.1 µM): 94.7% and 101% (2×) | viability, T/C (compound 0.316 µM): 102% and 94.4% and 86.6% | viability, T/C (compound 1 µM): 89.1% and 102% and 95.7% | viability, T/C (compound 3.16 µM): 91.2% and 99.8% and 90.1% | viability, T/C (compound 10 µM): 60.3% and 99.5% and 74.6% | IC50 (curve of compound): > 10 µM

CC(C)n1c(=O)n(C)c2cnc3cc(F)c(-c4ccc(OCCCN5CCCCC5)nc4)cc3c21 + Cc1cccc(N(C)C(=O)C2C(O)CCN2c2nc(C)cc(C(F)(F)F)c2C#N)c1
IC50 [1]: > 10 µM | IC50 [2]: > 10 µM | IC50 [3]: > 10 µM | IC50 [4]: > 10 µM | IC50 [5]: > 10 µM | IC50 [6]: > 10 µM | viability, T/C [7]: 104% | viability, T/C [8]: 83% | viability, T/C [9]: 92.2% | viability, T/C [10]: 78.4% | viability, T/C [11]: 78.8% | viability, T/C [12]: 72.5% | viability, T/C [13]: 90.5% | viability, T/C [14]: 90.3% | viability, T/C [15]: 91.7% | viability, T/C [16]: 86.5% | viability, T/C [17]: 77.7% | viability, T/C [18]: 75.3% | viability, T/C [19]: 85% | viability, T/C [20]: 93.9% | viability, T/C [21]: 72.3% | viability, T/C [22]: 92.6% | viability, T/C [23]: 81.8% | viability, T/C [24]: 69.7% | viability, T/C [25]: 81.8% | viability, T/C [26]: 95.7% | viability, T/C [27]: 94.2% | viability, T/C [28]: 73.4% | viability, T/C [29]: 75.6% | viability, T/C [30]: 62.6% | viability, T/C [31]: 89.2% | viability, T/C [32]: 108% | viability, T/C [33]: 88.8% | viability, T/C [34]: 87.8% | viability, T/C [35]: 77.6% | viability, T/C [36]: 64.7% | viability, T/C [37]: 83.3% | viability, T/C [38]: 88.9% | viability, T/C [39]: 83.3% | viability, T/C [40]: 89.1% | viability, T/C [41]: 83.4% | viability, T/C [42]: 53.6%

CNCc1ccc(-c2[nH]c3cc(F)cc4c3c2CCNC4=O)cc1
viability, T/C (compound 0.0316 µM): 87.2% and 101% and 90.9% | viability, T/C (compound 0.1 µM): 82.5% and 98.5% and 90.4% | viability, T/C (compound 0.316 µM): 76.4% and 92.6% and 91.3% | viability, T/C (compound 1 µM): 75.4% and 90% and 68.9% | viability, T/C (compound 3.16 µM): 49.1% and 76.2% and 44.9% | viability, T/C (compound 10 µM): 25% and 30% and 21.1% | IC50 (curve of compound): 3.17 µM and 6 µM and 2.43 µM

COC1C(OC(N)=O)C(O)C(Oc2ccc3c(O)c(NC(=O)c4ccc(O)c(CC=C(C)C)c4)c(=O)oc3c2C)OC1(C)C (stereo not given)
viability, T/C (compound 0.0316 µM): 99.8% [middle of 13 runs] | viability, T/C (compound 0.1 µM): 101% [middle of 13 runs] | viability, T/C (compound 0.316 µM): 100% [middle of 13 runs] | viability, T/C (compound 3.16 µM): 99.4% [middle of 13 runs] | IC50 (compound alone, run of 01/08/2024): > 10 µM
